From ChEMBL document CHEMBL1131431, “Enantiospecific semisynthesis of (+)-almuheptolide-A, a novel natural heptolide inhibitor of the mammalian mitochondrial respiratory chain” (J Med Chem, 1998) come the findings set out here.

The structures appear in SMILES notation.

In general, IC50 refers to the midpoint of a concentration-inhibition curve.

This experiment has as its target Mitochondrial complex I; NADH oxidoreductase (Bos taurus, UniProt P25708+P52505). Kind of experiment: Compound was tested for NADH oxidase activity in bovine heart submitochondrial particles. It is filed as protein-complex assay.

Sequence of Mitochondrial complex I; NADH oxidoreductase (P25708 21-464 limits assumed, other chains not shown): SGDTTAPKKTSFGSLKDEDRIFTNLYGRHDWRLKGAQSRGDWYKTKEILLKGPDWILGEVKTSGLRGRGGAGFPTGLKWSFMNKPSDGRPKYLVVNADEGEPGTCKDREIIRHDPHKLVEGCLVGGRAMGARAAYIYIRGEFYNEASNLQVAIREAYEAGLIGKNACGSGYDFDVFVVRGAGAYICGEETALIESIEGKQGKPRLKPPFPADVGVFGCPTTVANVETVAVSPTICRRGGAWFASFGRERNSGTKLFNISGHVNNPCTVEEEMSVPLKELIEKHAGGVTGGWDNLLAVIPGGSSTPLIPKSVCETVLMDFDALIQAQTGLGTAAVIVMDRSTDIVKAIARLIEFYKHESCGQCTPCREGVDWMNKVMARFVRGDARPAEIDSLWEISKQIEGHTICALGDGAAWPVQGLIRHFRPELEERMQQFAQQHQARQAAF

As for `CCO[C@H]1[C@@H](OC(C)=O)[C@H](OC(C)=O)[C@@H](c2ccccc2)OC(=O)C[C@H]1OCC`, the midpoint of inhibition, the IC50, lay at 3.9 µM.
`CCO[C@H]1[C@@H](O)[C@H](O)[C@@H](c2ccccc2)OC(=O)C[C@H]1OCC` showed an IC50 of 4.4 µM.
